Data published in patent US20230301890A1, “COMPOSITIONS COMPRISING UROLITHINS” (Amazentis SA, priority 2022, published 2023).
“Also recorded” adds a separate entry of the source.

Legend:
[1] = tested on: UVB induced erythema; assay: Clinical trial: UVB induced erythema, Chromameter a*; assay type: in vivo, human
Procedure: A sunburn of 1.25 minimal erythemal dose (MED) was evoked on one set of test areas and 1.6 MED on the other set of test areas by irradiation with a sun simulator. On 3 test areas of each set products was applied 24 hours before irradiation, on 3 other test areas of each set products was applied immediately after irradiation. An irradiated but untreated test area served as a control. The effect of the test products was assessed by visual evaluation of erythema and instrumental color measurements by Chromameter before and after irradiation. The study was reviewed by an independent institutional review board (IRB) for ethical approval.
The following efficacy assessment(s) will be performed: • Erythema (a*) by Chromameter (See FIG. 10) • Visual erythema evaluation (trained grader)
The following instrumental measurement(s) will be performed: • CHROMAMETER CR 400 (Minolta, Device D-Langenhagen, Germany): Skin color can objectively be quantified by reflectance measurements with a tri-stimulus Chromameter. The measuring principle is based on the reflection of a Xenon flash that diffusely lightens the skin on an area of 8 mm in diameter. The vertically reflected light from the skin is then detected by high-sensitive silica photodiodes that provide a color analysis of the detected light. The Chromameter defines the measured color in the L*a*b* color coordinate system. The L*-value defines the brightness. The color is defined by the parameters a* (red-green axis; negative a*-value green, positive a*-value red) and b* (blue-yellow axis, negative b*-value blue, positive b*-value yellow). The a* value correlates well with visual assessments of skin redness (erythema), a* is a measure for erythema. […]

[2] = tested on: Normal Adult Human Dermal Fibroblasts (NHDF-Ad); assay: RNA sequencing gene expression in human primary dermal fibroblasts; assay type: cell-based; conditions: for expression of MMP1: vs DMSO/vehicle
Procedure: Study was conducted on Normal Adult Human Dermal Fibroblasts (NHDF-Ad) from two pooled donors (Catalog #: CC-2511) and Normal Adult Human Epidermal Keratinocytes (NHEK-Ad) from two pooled donors (Catalog #: 00192627, Lonza). The primary skin cells were amplified in flask and seeded in 12-well cell culture plates, filled with 1 mL of culture medium and then incubated at 37° C. with 5% CO2 and saturated hygrometry. The basic culture medium of human dermal fibroblasts was composed of FBM™ medium (Fibroblast Growth Basal Medium) supplemented with insulin 0.1%, hFGF-B 0.1%, GA-1000 0.1% and FBS 2%. The basic culture medium of human keratinocytes was composed of KBM™ Gold medium (Keratinocytes Basal Medium) supplemented with Hydrocortisone, Transferrin, Epinephrine, Gentamycin, Amphotericin B, BPE, hEGF and Insulin. Primary cells were treated at confluency (approximatively 250000 cells per well) with 0.1% DMSO (control), 2.5 μM and 10 μM of Urolithin A for 24 h, and harvested for RNA sequencing and expression profiling using the NGS platform.

[3] = tested on: human skin; assay: RNA-seq transcriptomics and GSEA of forearm skin biopsies (aging study 1); assay type: in vivo; conditions: 8 weeks; for expression of collagen genes (COL1A1, COL5A1, COL5A2, COL14A1, COL3A1) / gene set "collagen fibril organization" (Normalized Enrichment Score): 1% Mitopure product; for expression of collagen genes (COL1A1, COL5A1, COL5A2, COL14A1, COL3A1): change vs baseline normalized over placebo; for gene set "collagen fibril organization" (Normalized Enrichment Score): end of study vs baseline, normalized over placebo/vehicle
Procedure: In this study, a cosmetic product with a 1% concentration of the active Mitopure or a placebo product were tested on skin aging for 8 weeks. […] Gene set enrichment analysis (GSEA) was performed using the R package ClusterProfiler [Yu et al., 2012]. Briefly, in each comparison, genes were ranked by age beta score value, and the enrichment of a given gene set among up- or-down regulated genes was statistically tested. The minimum and maximum gene set sizes were set to 10 and 500, respectively. Resulting p-values were adjusted using the BH method. Terms with an adjusted p-value<0.05 were considered as statistically significant. To analyze mitochondrial effects biopsies will be taken from a subpanel on volar forearms prior and after 8 weeks of product application and will be analyzed for biomarkers by 3rd parties (See FIGS. 2 and 4). Gene set enrichment analysis (GSEA) will be employed to look for overrepresentation of known mitochondrial pathways and gene functional categories among the regulated genes expressed in human skin. Genes will be ranked by fold change (high to low) and filtered (unadjusted P value of 0.1 before using them) in the GSEA analysis to reduce the risk of false positives. Gene sets defined by the Gene Ontology (GO) Consortium (http://www.geneontology.org/) will be analyzed. We investigated biological pathways impacted by topical UA application performing RNA-seq transcriptomics of forearm skin biopsies from the aging study I. Gene set enrichment analysis (GSEA) was applied to identify significant pathways changed by UA comparing end of the study to baseline, and normalizing results over vehicle. […] We further studied which UA regulated pathways are involved in the natural skin aging process. […] This gene set includes collagen genes encoding for fibrillar type I and III collagen (FIG. 13B), known to decline in skin with chronological aging 13, photo-aging and smoking 14. […] Among them, […]-1, regulating 3D structure and elasticity 15 and AEBP, encoding for a collagen-interacting protein required for optimal tissue repair 16 (FIG. 13B).

[4] = tested on: skin barrier function; assay: Skin barrier function (TEWL) by Tewameter, aging studies; assay type: in vivo, human; conditions: UA 1% topical, 8 weeks
Procedure: TEWAMETER® TM 300 (Courage & Khazaka, Cologne, Germany): Transepidermal water loss (TEWL) is a non-invasive method to measure the barrier function of the skin and is regarded as a sensitive parameter to quantify skin barrier damage. Briefly, the insensible water evaporation from the skin is measured by placing cylindric open chamber with two hygrosensors at defined distance to the skin. The probe is held in place for each measurement for 30 seconds. This is to assure that a stable value has been established. The first part of the measurements belongs to this equilibration phase. The values of the last 10 seconds (=10 values) are averaged as the actual measurement value.
TEWAMETER® TM 300 (Courage & Khazaka, Cologne, Germany): Transepidermal water loss (TEWL) is a non-invasive method to measure the barrier function of the skin and is regarded as a sensitive parameter to quantify skin barrier damage. Briefly, the insensible water evaporation from the skin is measured by placing cylindric open chamber with two hygrosensors at defined distance to the skin.

O=c1oc2cc(O)ccc2c2ccc(O)cc12 [Urolithin A]
skin redness, erythema (a*) by Chromameter vs untreated area ([1]; skin cream with 1% Urolithin A, 1.6 MED UVB, 24 hours after irradiation): reduction; also recorded: significantly less skin redness | reduction of skin redness/erythema ([1]; skin cream with 1% Urolithin A, 1.6 MED UVB, vs untreated area): approximately 14.3% | skin redness/erythema ([1]; skin cream with Urolithin A at 0.5%): did not show any significant effect | collagen gene expression (COL1A1) ([2]; 2.5 μM or 10 μM, 24 hours): did not alter | expression of MMP1 ([2]; 2.5 μM or 10 μM, 24 hours): decreases | expression of MMP1 ([2]; 2.5 μM or 10 μM, 24 hours, listed as UA): suppressed the expression | expression of mitophagy genes PARKIN and PINK1 and autophagy genes MAP1LC3 and ULK1 ([2]; 2.5 μM or 10 μM, 24 hours, vs vehicle): dose-dependent increase | expression of mitophagy marker PINK1 ([2]; 2.5 uM or 10 uM, vs DMSO): increased | expression of collagen genes (COL1A1, COL5A1, COL5A2, COL14A1, COL3A1) [3]: significant up-regulation | expression of collagen genes (COL1A1, COL5A1, COL5A2, COL14A1, COL3A1) ([3]; listed as Mitopure): increased expression; also recorded: all upregulated; also recorded: improved expression | gene set "collagen fibril organization" (Normalized Enrichment Score) [3]: significantly upregulated; also recorded: positive | gene set "collagen fibril organization" (Normalized Enrichment Score) ([3]; listed as UA): most significantly activated pathway | genes involved in skin homeostasis (EMILIN-1, AEBP) ([3]; UA 1% topical): rescued age-associated decline | gene sets related to chemokine response ([3]; UA 1% topical, normalized over vehicle): reducing | skin barrier function [4]: no significant impact
